Test results reported in PubChem BioAssay AID1259407 (Chemical Carcinogenesis Research Information System (CCRIS), 2018).
The source made the active and inactive calls. The rule behind the calls is not given here.

System: CCRIS mutagenicity, Ames/micronucleus/aberration tests
Assay: CCRIS mutagenicity studies
Conditions: Test System: AMES SALMONELLA TYPHIMURIUM
[1] = Strain/Indicator: TA98, Metabolic Activation: NONE, Method: PREINCUBATION

Row | Compound | mutagenic call (Strain/Indicator: TA1535, Metabolic Activation: HAMSTER, LIVER, S-9, Method: STANDARD PLATE) | mutagenic call (Strain/Indicator: TA1535, Metabolic Activation: RAT, LIVER, S-9, Method: STANDARD PLATE) | mutagenic call [1] | mutagenic call (Strain/Indicator: TA100, Metabolic Activation: NONE, Method: PREINCUBATION) | mutagenic call (Strain/Indicator: TA98, Metabolic Activation: RAT, LUNG, S-9, Method: PREINCUBATION)
1 | CN(C)CCN(C)N=O | active; positive | inactive; negative | – | – | –
2 | Nc1ccc(Cc2ccc(N=O)c(Cl)c2)cc1Cl | – | – | inactive; negative | inactive; negative | –
3 | O=S(=O)(O)Oc1ccc2cc3ccc4cccc5ccc(c2c1)c3c45 | – | – | inactive; negative | – | inactive; negative
